Experimental data as given in EPA's ToxRefDB 2.

Columns and labels:
rat [1] = details: Sub-acute repeat dose toxicity, sprague dawley, Oral, Gavage/Intubation, dose end: 28 day, group: systemic
dog [2] = details: Sub-acute repeat dose toxicity; beagle; Oral; Capsule; dose end: 1 month; group: systemic; systemic / in life observation / clinical signs / defecation (diarrhea) + systemic / in life observation / clinical signs / emesis + …
rat [3] = details: Subchronic oral toxicity in rodents, sprague dawley, Water, dose end: 90 day, group: systemic
mouse [4] = details: Combined chronic toxicity/carcinogenicity; b6c3f1; Oral; Gavage/Intubation; dose end: 52 week; group: systemic; systemic / organ weight / liver / absolute + systemic / organ weight / liver / relative to body weight + systemic / pathology microscopic / …
primate [5] = details: Sub-acute repeat dose toxicity; Oral; Gavage/Intubation; dose end: 4 day; group: systemic; systemic / clinical chemistry / chloride / chlorine + systemic / clinical chemistry / cholesterol / cholesterol + systemic / clinical …
rat [6] = details: Sub-acute repeat dose toxicity; sprague dawley; Oral; Gavage/Intubation; dose end: 14 day; group: systemic; systemic / clinical chemistry / [other] / [other] + systemic / clinical chemistry / 5' nucleotidase / 5' nucleotidase + systemic / clinical …
mouse [7] = details: Sub-acute repeat dose toxicity, Oral, Gavage/Intubation, dose end: 14 day, group: systemic
mouse [8] = details: Sub-acute repeat dose toxicity; Oral; Gavage/Intubation; dose end: 14 day; group: systemic; systemic / clinical chemistry / [other] / [other] + systemic / clinical chemistry / cytochrome p450, nos / cytochrome p450, nos + systemic…
rat [9] = details: Sub-acute repeat dose toxicity, sprague dawley, Oral, Gavage/Intubation, dose end: 14 day, group: systemic
primate [10] = details: Sub-acute repeat dose toxicity; Oral; Gavage/Intubation; dose end: 8 day; group: systemic; systemic / in life observation / clinical signs / emesis
mouse [11] = details: Sub-acute repeat dose toxicity; Oral; Gavage/Intubation; dose end: 14 day; group: systemic; systemic / clinical chemistry / [other] / [other] + systemic / clinical chemistry / cytochrome p450, nos / cytochrome p450, nos + systemic…; remark: listed apart in the source
rat [12] = details: Sub-acute repeat dose toxicity, sprague dawley, Oral, Gavage/Intubation, dose end: 34 day, group: systemic
primate [13] = details: Sub-acute repeat dose toxicity, Oral, Gavage/Intubation, dose end: 34 day, group: systemic
rat [14] = details: Sub-acute repeat dose toxicity; sprague dawley; Oral; Gavage/Intubation; dose end: 8 day; group: systemic; systemic / clinical chemistry / potassium / potassium + systemic / in life observation / body weight / body weight + systemic / clinical …
dog [15] = details: Subchronic oral toxicity in nonrodent, beagle, Feed, dose end: 90 day
rat [16] = details: Prenatal developmental toxicity study, wistar, Oral, Gavage/Intubation, dose end: 16 GD
dog [17] = details: Chronic toxicity; beagle; Oral; Feed; dose end: 104 week; group: systemic; systemic / hematology / [other] / [other] + systemic / hematology / eosinophils / eosinophils + systemic / hematology / erythroblast / …
rat [18] = details: Multigenerational reproductive toxicity study, sprague dawley, Oral, Feed, dose end: 2 generation
primate [19] = details: Sub-acute repeat dose toxicity; Oral; Gavage/Intubation; dose end: 9 day; group: systemic; systemic / clinical chemistry / [other] / [other] + systemic / clinical chemistry / alanine aminotransferase (alt/sgpt) / alanine …
rat [20] = details: Sub-acute repeat dose toxicity; sprague dawley; Oral; Gavage/Intubation; dose end: 14 day; group: systemic; systemic / hematology / erythrocyte (rbc) count differential / erythrocyte (rbc) + systemic / hematology / fibrinogen / fibrinogen + …
primate [21] = details: Sub-acute repeat dose toxicity; Oral; Gavage/Intubation; dose end: 5 day; group: systemic; systemic / clinical chemistry / bilirubin / total bilirubin + systemic / in life observation / clinical signs / abnormal feces + systemic / …
primate [22] = details: Sub-acute repeat dose toxicity, Oral, Gavage/Intubation, dose end: 30 day, group: systemic
rat [23] = details: Sub-acute repeat dose toxicity; sprague dawley; Oral; Gavage/Intubation; dose end: 28 day; group: systemic; systemic / in life observation / body weight / body weight + systemic / in life observation / clinical signs / feces, discoloration + …
mouse [24] = details: Combined chronic toxicity/carcinogenicity, b6c3f1, Inhalation, Whole-Body, dose end: 103 week, group: systemic
mouse [25] = details: Subchronic oral toxicity in rodents, b6c3f1, Gavage/Intubation, dose end: 13 week, group: systemic
rabbit = details: Prenatal developmental toxicity study, new zealand white, Oral, Gavage/Intubation, dose end: 18 GD
rat [26] = details: Combined chronic toxicity/carcinogenicity; fischer; Inhalation; Whole-Body; dose end: 103 week; group: systemic; systemic / pathology microscopic / larynx / metaplasia + systemic / pathology microscopic / nose / pigmentation + systemic / pathology …
rat [27] = details: Subchronic inhalation toxicity, sprague dawley, Whole-Body, dose end: 13 week, group: systemic, systemic / hematology / erythrocyte (rbc) count differential / erythrocyte (rbc) + systemic / hematology / hemoglobin (hgb) / hemoglobin (…
rat [28] = details: Subchronic oral toxicity in rodents, fischer, Gavage/Intubation, dose end: 13 week, group: systemic
[29] = systemic / clinical chemistry / glucose / glucose + systemic / clinical chemistry / cholesterol / cholesterol
[30] = systemic / clinical chemistry / glucose / glucose + systemic / hematology / platelet / platelet + systemic / pathology microscopic / liver…
[31] = systemic / clinical chemistry / alanine aminotransferase (alt/sgpt) / alanine aminotransferase (alt/sgpt) + systemic / clinical chemistry / …
[32] = systemic / clinical chemistry / protein / protein
[33] = systemic / clinical chemistry / [other] / [other] + systemic / clinical chemistry / cytochrome p450, nos / cytochrome p450, nos + systemic…
[34] = systemic / organ weight / liver / relative to body weight
[35] = systemic / clinical chemistry / cholesterol / cholesterol + systemic / clinical chemistry / globulins / globulins + systemic / clinical …
[36] = systemic / clinical chemistry / hepatic mixed function oxidase (mfo) assay / hepatic mixed function oxidase (mfo) assay
[37] = systemic / hematology / erythrocyte (rbc) count differential / erythrocyte (rbc) + systemic / in life observation / mortality / mortality + …
[38] = systemic / organ weight / liver / absolute + systemic / clinical chemistry / hepatic mixed function oxidase (mfo) assay / hepatic mixed …
[39] = systemic / organ weight / liver / absolute + systemic / in life observation / clinical signs / arrhythmia + systemic / in life observation…
[40] = group: cholinesterase, cholinesterase / cholinesterase / cholinesterase / plasma cholinesterase (che) + cholinesterase / cholinesterase / cholinesterase / …
[41] = group: systemic, systemic / hematology / [other] / [other] + systemic / hematology / erythroblast / erythroblast + systemic / hematology / lymphocyte / …
[42] = group: developmental, developmental / developmental malformation / bone / [other] + developmental / developmental malformation / bone / bipartite ossification + …
[43] = group: maternal, systemic / in life observation / body weight / body weight gain + systemic / in life observation / food consumption / food consumption
[44] = group: offspring, systemic / in life observation / body weight / offspring (pup) weight
[45] = group: parental, systemic / in life observation / body weight / body weight gain + systemic / in life observation / food consumption / food consumption + …
[46] = systemic / in life observation / mortality / mortality + systemic / clinical chemistry / [other] / [other] + systemic / hematology / …
[47] = systemic / pathology gross / full gross necropsy / hemorrhage + systemic / pathology gross / full gross necropsy / lesion(s) (nos)
[48] = systemic / pathology microscopic / nose / pigmentation + systemic / pathology microscopic / trachea / pigmentation
[49] = systemic / in life observation / body weight / body weight gain + systemic / in life observation / clinical signs / fur (altered appearance…
[50] = systemic / organ weight / kidney / relative to brain weight + systemic / organ weight / liver / relative to brain weight
[51] = group: developmental, developmental / developmental malformation / bone / malformation, total
[52] = group: maternal, systemic / in life observation / body weight / body weight gain + systemic / in life observation / clinical signs / defecation (diarrhea) + …

## COc1cc(C(C)C)c2c(c1)S(=O)(=O)N(COc1cc(=O)n3cccc(OCCN4CCCCC4)c3n1)C2=O
Rat [1]; [29]
  LEL: 30 mg/kg/day
  NEL: < 30 mg/kg/day
Rat [1]; [30]
  LOAEL: 100 mg/kg/day
  NOAEL: 30 mg/kg/day
Dog [2]
  LEL: 10 mg/kg/day
  LOAEL: > 100 mg/kg/day
  NEL: < 10 mg/kg/day
  NOAEL: ≥ 100 mg/kg/day

## O=C(O)C(Cl)Cl [Dichloroacetic acid]
Rat [3]; [31]
  LOAEL: > 345 mg/kg/day
  NOAEL: ≥ 345 mg/kg/day
Rat [3]; [32]
  LEL: 3.9 mg/kg/day
  NEL: < 3.9 mg/kg/day
Mouse [4]
  LEL: 133 mg/kg/day
  LOAEL: > 267 mg/kg/day
  NEL: < 133 mg/kg/day
  NOAEL: ≥ 267 mg/kg/day

## NC(=O)N(O)Cc1ccc2c(c1)CCCN2CCCc1ccccc1
Primate [5]
  LEL: 300 mg/kg/day
  LOAEL: > 300 mg/kg/day
  NEL: < 300 mg/kg/day
  NOAEL: ≥ 300 mg/kg/day
Rat [6]
  LEL: 200 mg/kg/day
  LOAEL: > 200 mg/kg/day
  NEL: < 200 mg/kg/day
  NOAEL: ≥ 200 mg/kg/day
Mouse [7]; [33]
  LOAEL: > 200 mg/kg/day
  NOAEL: ≥ 200 mg/kg/day
Mouse [7]; [34]
  LEL: 50 mg/kg/day
  NEL: < 50 mg/kg/day
Mouse [8]
  LEL: 200 mg/kg/day
  LOAEL: > 200 mg/kg/day
  NEL: < 200 mg/kg/day
  NOAEL: ≥ 200 mg/kg/day
Rat [9]; [35]
  LOAEL: > 100 mg/kg/day
  NEL: 10 mg/kg/day
  NOAEL: ≥ 100 mg/kg/day
Rat [9]; systemic / clinical chemistry / triglycerides / triglycerides + systemic / organ weight / liver / relative to body weight + systemic / …
  LEL: 32 mg/kg/day
Primate [10]
  LEL: 150 mg/kg/day
  LOAEL: > 150 mg/kg/day
  NEL: < 150 mg/kg/day
  NOAEL: ≥ 150 mg/kg/day
Mouse [11]
  LEL: 200 mg/kg/day
  LOAEL: > 200 mg/kg/day
  NEL: < 200 mg/kg/day
  NOAEL: ≥ 200 mg/kg/day
Rat [12]; [36]
  LEL: 10 mg/kg/day
  NEL: < 10 mg/kg/day
Rat [12]; [37]
  LOAEL: > 200 mg/kg/day
  NOAEL: ≥ 200 mg/kg/day
Primate [13]; [38]
  LEL: 5 mg/kg/day
  NEL: < 5 mg/kg/day
Primate [13]; [39]
  LOAEL: > 100 mg/kg/day
  NOAEL: ≥ 100 mg/kg/day
Rat [14]
  LEL: 400 mg/kg/day
  LOAEL: > 400 mg/kg/day
  NEL: < 400 mg/kg/day
  NOAEL: ≥ 400 mg/kg/day

## Cc1nc(N(C)C)nc(OC(=O)N(C)C)c1C [Pirimicarb]
Dog [15]; [40]
  LEL: 10 mg/kg/day
  LOAEL: 10 mg/kg/day
  NEL: 4 mg/kg/day
  NOAEL: 4 mg/kg/day
Dog [15]; [41]
  LEL: 4 mg/kg/day
  LOAEL: 4 mg/kg/day
  NEL: 1.8 mg/kg/day
  NOAEL: 1.8 mg/kg/day
Rat [16]; [42]
  LEL: 75 mg/kg/day
  LOAEL: 75 mg/kg/day
  NEL: 25 mg/kg/day
  NOAEL: 25 mg/kg/day
Rat [16]; [43]
  LEL: 75 mg/kg/day
  LOAEL: 75 mg/kg/day
  NEL: 25 mg/kg/day
  NOAEL: 25 mg/kg/day
Dog [17]
  LEL: 4 mg/kg/day
  LOAEL: 4 mg/kg/day
  NEL: 1.8 mg/kg/day
  NOAEL: 1.8 mg/kg/day
Rat [18]; [44]
  LEL: 90.1 mg/kg/day
  LOAEL: 90.1 mg/kg/day
  NEL: 23.2 mg/kg/day
  NOAEL: 23.2 mg/kg/day
Rat [18]; [45]
  LEL: 81.8 mg/kg/day
  LOAEL: 81.8 mg/kg/day
  NEL: 21.7 mg/kg/day
  NOAEL: 21.7 mg/kg/day

## NC(=O)N1C(=O)C(C(=O)c2ccc(F)s2)c2cc(F)c(Cl)cc21 (configuration not stated)
Primate [19]
  LEL: 2 mg/kg/day
  LOAEL: > 20 mg/kg/day
  NEL: < 2 mg/kg/day
  NOAEL: ≥ 20 mg/kg/day
Rat [20]
  LEL: 30 mg/kg/day
  LOAEL: > 30 mg/kg/day
  NEL: 10 mg/kg/day
  NOAEL: ≥ 30 mg/kg/day
Primate [21]
  LEL: 30 mg/kg/day
  LOAEL: > 30 mg/kg/day
  NEL: < 30 mg/kg/day
  NOAEL: ≥ 30 mg/kg/day
Primate [22]; [46]
  LOAEL: > 10 mg/kg/day
  NOAEL: ≥ 10 mg/kg/day
Primate [22]; [47]
  LEL: 1 mg/kg/day
  NEL: < 1 mg/kg/day
Rat [23]
  LEL: 3 mg/kg/day
  LOAEL: > 20 mg/kg/day
  NEL: < 3 mg/kg/day
  NOAEL: ≥ 20 mg/kg/day

## ClC1=C(Cl)C(Cl)(Cl)C(Cl)=C1Cl [Hexachlorocyclopentadiene]
Mouse [24]; systemic / in life observation / body weight / body weight + systemic / pathology microscopic / nose / inflammation
  LOAEL: 0.2 ppm
Mouse [24]; systemic / in life observation / body weight / body weight + systemic / pathology microscopic / nose / inflammation + systemic / pathology …
  NOAEL: 0.05 ppm
Mouse [24]; [48]
  LEL: 0.01 ppm
  NEL: < 0.01 ppm
Mouse [25]; [49]
  LOAEL: > 300 mg/kg/day
  NOAEL: ≥ 300 mg/kg/day
Mouse [25]; [50]
  LEL: 19 mg/kg/day
  NEL: < 19 mg/kg/day
rabbit; [51]
  LEL: 75 mg/kg/day
  LOAEL: > 75 mg/kg/day
  NEL: 25 mg/kg/day
  NOAEL: ≥ 75 mg/kg/day
rabbit; [52]
  LEL: 75 mg/kg/day
  LOAEL: 75 mg/kg/day
  NEL: 25 mg/kg/day
  NOAEL: 25 mg/kg/day
Rat [26]
  LEL: 0.01 ppm
  LOAEL: > 0.2 ppm
  NEL: < 0.01 ppm
  NOAEL: ≥ 0.2 ppm
Rat [27]
  LEL: 0.01 ppm
  LOAEL: > 0.2 ppm
  NEL: < 0.01 ppm
  NOAEL: ≥ 0.2 ppm
Rat [28]; [49]
  LOAEL: > 150 mg/kg/day
  NEL: 10 mg/kg/day
  NOAEL: ≥ 150 mg/kg/day
Rat [28]; systemic / pathology microscopic / stomach / hyperplasia + systemic / pathology microscopic / stomach / inflammation
  LEL: 19 mg/kg/day
